Laboratory results taken from patent publication US8022225B2, “Triazole derivative” (Taisho Pharmaceutical Co., Ltd, priority 2004, dated 2011).

Key:
human Edg-1(S1P1) [1] = molecular target: T1, human Edg-1(S1P1) (Homo sapiens, UniProt P21453); test: Cell system binding test: inhibition of [3H]-S1P binding to Edg-1(S1P1) gene transferred HEK-293 cells; settings: [3H]-S1P 10 nM
T1 construct: expressed in transfected cells; host or cells: HEK-293

human Edg-1(S1P1) [2] = molecular target: T1, human Edg-1(S1P1); test: Membrane system binding test: inhibition of [33P]-S1P binding to the membrane fraction of Edg-1(S1P1) gene transferred HEK-293 cells; settings: [33P]-S1P 0.1 nM
Method in brief: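 Compound tested at 10^−5 M final (0.1% DMSO) for blocking 0.1 nM [^33P]-S1P binding to S1P1-expressing HEK-293 membranes, 30 °C, 1 h. Radioactivity retained on filters was counted, and percent inhibition derived relative to vehicle binding, correcting for the background of non-transfected HEK-293 membranes.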

[3] = 10 μM compound, read-out: Cell system binding test % inhibition (10 μM)
[4] = 10 μM compound, membrane fraction of Edg-1(S1P1) gene transferred HEK-293 cells, read-out: Membrane system binding test % inhibition (10 μM)
[5] = test compound 10^-5 M, 1 hour, read-out: Edg-1(S1P1) binding inhibition rate (cell system binding test)
[6] = test compound 10^-5 M, 1 hour at 30° C., HEK-293 membrane fraction, read-out: Edg-1(S1P1) binding inhibition rate (membrane system binding test)

T1 sequence (P21453 whole entry): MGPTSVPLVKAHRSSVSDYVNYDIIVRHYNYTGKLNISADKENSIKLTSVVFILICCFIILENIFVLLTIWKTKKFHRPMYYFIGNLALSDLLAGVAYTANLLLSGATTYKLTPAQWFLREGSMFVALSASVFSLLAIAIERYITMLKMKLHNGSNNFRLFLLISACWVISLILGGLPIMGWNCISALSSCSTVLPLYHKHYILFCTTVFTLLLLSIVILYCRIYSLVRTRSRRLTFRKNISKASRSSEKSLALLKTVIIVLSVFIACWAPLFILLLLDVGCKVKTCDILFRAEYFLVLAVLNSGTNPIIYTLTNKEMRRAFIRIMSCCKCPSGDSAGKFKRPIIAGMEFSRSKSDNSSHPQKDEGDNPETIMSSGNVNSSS

SMILES | inhibition at 10 µM (human Edg-1(S1P1) [1]; [3]) [%] | inhibition at 10 µM (human Edg-1(S1P1) [2]; [4]) [%] | melting point [°C] | inhibition at 10 µM (human Edg-1(S1P1) [1]; [5]) [%] | inhibition at 10 µM (human Edg-1(S1P1) [2]; [6]) [%]
CCn1c(SC)nnc1[C@@H](C)NS(=O)(=O)c1ccc(Cl)cc1 [Compound 1, 4-chloro-N-{(1R)-1-[4-ethyl-5-(methylthio)-4H-1,2,4-triazol-3-yl]ethyl}benzenesulfonamide] | 89.8 | 72.3 | 176 to 177 | – | –
CCn1c(S)nnc1[C@@H](C)NS(=O)(=O)c1ccc(Cl)cc1 [Compound 90, 4-chloro-N-[(1R)-1-(4-ethyl-5-mercapto-4H-1,2,4-triazol-3-yl)ethyl]benzenesulfonamide] | 60.6 | 48.8 | 169.5 to 172.5 | – | –
CCn1c([C@@H](C)NS(=O)(=O)c2ccc(Cl)cc2)nnc1S(C)(=O)=O [Compound 182, 4-Chloro-N-{(1R)-1-[4-ethyl-5-(methylsulfonyl)-4H-1,2,4-triazol-3-yl]ethyl}benzenesulfonamide] | 53.7 | – | 129 to 130 | – | –
CCn1c(OC(C)C)nnc1[C@@H](C)NS(=O)(=O)c1cccc(OC(F)F)c1 [Compound 466] | – | – | – | 99.3 | 88.8
CCn1c(OC(C)C)nnc1[C@@H](C)NS(=O)(=O)c1ccc(Br)c(Br)c1 [Compound 467] | – | – | – | 100 | 98.6
CCn1c(OC(C)C)nnc1[C@@H](C)NS(=O)(=O)c1cccc(C(F)(F)F)c1 [Compound 468] | – | – | – | 96.9 | 75.8
CCn1c(OC(C)C)nnc1[C@@H](C)NS(=O)(=O)c1cccc(OC(F)(F)F)c1 [Compound 469] | – | – | – | 95.9 | 83.9
CCn1c(OC(C)C)nnc1[C@@H](C)NS(=O)(=O)c1cccc(C)c1 [Compound 470] | – | – | – | 91.6 | 80.8
CCn1c(OC(C)C)nnc1[C@@H](C)NS(=O)(=O)c1cccc(Cl)c1C [Compound 471] | – | – | – | 96.5 | 91
CCn1c(OC(C)C)nnc1[C@@H](C)NS(=O)(=O)c1ccc2nsnc2c1 [Compound 472] | – | – | – | 102 | 94.4
CCn1c(OC(C)C)nnc1[C@@H](C)NS(=O)(=O)c1ccc(C(F)(F)F)cc1 [Compound 473] | – | – | – | 95.1 | 91.7
CCn1c(OC(C)C)nnc1[C@@H](C)NS(=O)(=O)c1cc(F)cc(F)c1 [Compound 474] | – | – | – | 93 | 79
CCn1c(OC(C)C)nnc1[C@@H](C)NS(=O)(=O)c1cc(Cl)c(Cl)s1 [Compound 475] | – | – | – | 97.9 | 86.4
CCn1c(OC(C)C)nnc1[C@@H](C)NS(=O)(=O)c1ccc(I)cc1 [Compound 476] | – | – | – | 100 | 86.1
CCn1c(OC(C)C)nnc1[C@@H](C)NS(=O)(=O)c1ccc(F)cc1 [Compound 477] | – | – | – | 92 | 77.1
CCn1c(OC(C)C)nnc1[C@@H](C)NS(=O)(=O)c1cccc(Cl)c1 [Compound 479] | – | – | – | 93.3 | 83

SMILES | inhibition at 10 µM (human Edg-1(S1P1) [1]; [3]) [%] | inhibition at 10 µM (human Edg-1(S1P1) [2]; [4]) [%] | melting point [°C] | inhibition at 10 µM (human Edg-1(S1P1) [1]; [5]) [%] | inhibition at 10 µM (human Edg-1(S1P1) [2]; [6]) [%]
CCc1ccc(S(=O)(=O)N[C@H](C)c2nnc(OC(C)C)n2CC)cc1 [Compound 480] | – | – | – | 93.1 | 77.4
CCn1c(OC(C)C)nnc1[C@@H](C)NS(=O)(=O)c1cccc(OC)c1 [Compound 481] | – | – | – | 96.3 | 64.9
CCn1c(OC(C)C)nnc1[C@@H](C)NS(=O)(=O)c1cc(F)c(Br)cc1F [Compound 482] | – | – | – | 90.7 | 72.3
CCn1c(OCC(F)(F)F)nnc1[C@@H](C)NS(=O)(=O)c1cc(F)c(F)c(F)c1 [Compound 490] | – | – | – | 101 | 88.9
CCn1c(OCC(F)(F)F)nnc1[C@@H](C)NS(=O)(=O)c1ccc2ccccc2c1 [Compound 495] | – | – | – | 104 | 89.9
CCn1c(OCC(F)(F)F)nnc1[C@@H](C)NS(=O)(=O)c1cccc(OC(F)F)c1 [Compound 497] | – | – | – | 102 | 66.5
CCn1c(OCC(F)(F)F)nnc1[C@@H](C)NS(=O)(=O)c1ccc(C(F)(F)F)cc1 [Compound 500] | – | – | – | 103 | 81.6
CCn1c(OCC(F)(F)F)nnc1[C@@H](C)NS(=O)(=O)c1cc(F)cc(F)c1 [Compound 501] | – | – | – | 102 | 55.4
CCn1c(OCC(F)(F)F)nnc1[C@@H](C)NS(=O)(=O)c1cccc(C(F)(F)F)c1 [Compound 503] | – | – | – | 104 | 73.3
CCn1c(OCC(F)(F)F)nnc1[C@@H](C)NS(=O)(=O)c1cccc(OC(F)(F)F)c1 [Compound 504] | – | – | – | 96.6 | 54
CCn1c(OCC(F)(F)F)nnc1[C@@H](C)NS(=O)(=O)c1cc(Cl)c(Cl)s1 [Compound 510] | – | – | – | 106 | 70.9
CCn1c(OCC(F)(F)F)nnc1[C@@H](C)NS(=O)(=O)c1cc(F)c(Br)cc1F [Compound 517] | – | – | – | 93.7 | 42.7
CCCn1c(OC)nnc1[C@@H](C)NS(=O)(=O)c1ccc(Cl)cc1 [Compound 541] | – | – | – | 97.1 | 75.8
COc1nnc([C@@H](C)NS(=O)(=O)c2ccc(Cl)cc2)n1C(C)C [Compound 542] | – | – | – | 99.9 | 92.3
COc1nnc([C@@H](C)NS(=O)(=O)c2ccc(Cl)cc2)n1C1CC1 [Compound 543] | – | – | – | 93.1 | 101
CCCCn1c(OC)nnc1[C@@H](C)NS(=O)(=O)c1ccc(Cl)cc1 [Compound 544] | – | – | – | 47.5 | 100

The remaining lines, values ahead:

inhibition at 10 µM (human Edg-1(S1P1) [1]; [3]) [%] | inhibition at 10 µM (human Edg-1(S1P1) [2]; [4]) [%] | melting point [°C] | inhibition at 10 µM (human Edg-1(S1P1) [1]; [5]) [%] | inhibition at 10 µM (human Edg-1(S1P1) [2]; [6]) [%] | SMILES
– | – | – | 104 | 86 | CCn1c(OC(C)C)nnc1[C@@H](C)NS(=O)(=O)c1ccc(Br)c(C(F)(F)F)c1 [Compound 478]
– | – | – | 102 | 63.2 | CCn1c(OCC(F)(F)F)nnc1[C@@H](C)NS(=O)(=O)c1ccc(Br)s1 [Compound 484]
– | – | – | 103 | 95.5 | CCn1c(OCC(F)(F)F)nnc1[C@@H](C)NS(=O)(=O)c1ccc(Cl)c(Cl)c1 [Compound 485]
– | – | – | 99.5 | 93.8 | CCn1c(OCC(F)(F)F)nnc1[C@@H](C)NS(=O)(=O)c1ccc(C)c(Cl)c1 [Compound 486]
– | – | – | 99.6 | 90.4 | CCn1c(OCC(F)(F)F)nnc1[C@@H](C)NS(=O)(=O)c1ccc(Br)c(F)c1 [Compound 487]
– | – | – | 102 | 91.4 | CCn1c(OCC(F)(F)F)nnc1[C@@H](C)NS(=O)(=O)c1ccc(F)c(Cl)c1 [Compound 488]
– | – | – | 103 | 98.4 | CCn1c(OCC(F)(F)F)nnc1[C@@H](C)NS(=O)(=O)c1ccc(Br)c(C)c1 [Compound 489]
– | – | – | 88.9 | 75.7 | CCn1c(OCC(F)(F)F)nnc1[C@@H](C)NS(=O)(=O)c1cccc(Br)c1 [Compound 491]
– | – | – | 104 | 87.9 | CCn1c(OCC(F)(F)F)nnc1[C@@H](C)NS(=O)(=O)c1ccc(Br)cc1 [Compound 492]
– | – | – | 105 | 88.3 | CCn1c(OCC(F)(F)F)nnc1[C@@H](C)NS(=O)(=O)c1ccc(C)c(C)c1 [Compound 493]
– | – | – | 102 | 87.1 | CCn1c(OCC(F)(F)F)nnc1[C@@H](C)NS(=O)(=O)c1ccc(C)c(F)c1 [Compound 494]
– | – | – | 103 | 75.7 | CCn1c(OCC(F)(F)F)nnc1[C@@H](C)NS(=O)(=O)c1ccc(F)c(F)c1 [Compound 496]
– | – | – | 104 | 88.5 | CCn1c(OCC(F)(F)F)nnc1[C@@H](C)NS(=O)(=O)c1cccc(Cl)c1C [Compound 498]
– | – | – | 107 | 89.1 | CCn1c(OCC(F)(F)F)nnc1[C@@H](C)NS(=O)(=O)c1ccc2nsnc2c1 [Compound 499]
– | – | – | 108 | 86.3 | CCn1c(OCC(F)(F)F)nnc1[C@@H](C)NS(=O)(=O)c1ccc(Br)c(Br)c1 [Compound 502]
– | – | – | 103 | 74.4 | CCn1c(OCC(F)(F)F)nnc1[C@@H](C)NS(=O)(=O)c1cccc(C)c1 [Compound 505]
– | – | – | 99 | 85.4 | CCn1c(OCC(F)(F)F)nnc1[C@@H](C)NS(=O)(=O)c1ccc(I)cc1 [Compound 511]
– | – | – | 105 | 71.5 | CCn1c(OCC(F)(F)F)nnc1[C@@H](C)NS(=O)(=O)c1ccc(F)cc1 [Compound 512]
– | – | – | 98.8 | 55.2 | CCn1c(OCC(F)(F)F)nnc1[C@@H](C)NS(=O)(=O)c1ccc(Br)c(C(F)(F)F)c1 [Compound 513]
– | – | – | 98.4 | 86.7 | CCn1c(OCC(F)(F)F)nnc1[C@@H](C)NS(=O)(=O)c1cccc(Cl)c1 [Compound 514]
– | – | – | 103 | 62.4 | CCc1ccc(S(=O)(=O)N[C@H](C)c2nnc(OCC(F)(F)F)n2CC)cc1 [Compound 515]
– | – | – | 101 | 61.9 | CCn1c(OCC(F)(F)F)nnc1[C@@H](C)NS(=O)(=O)c1cccc(OC)c1 [Compound 516]
